Test results: patent EP4582413A1, “ARYLTETRAHYDROPYRIDINE COMPOUND AND PEST CONTROL AGENT” (priority 2022, dated 2024)

How the values were obtained:
Format in all cases: in vivo
[1] = test system: Trichostrongylus axei; test: Effect test for Trichostrongylus axei; parameters: concentration or dose not given beside the values; conditions: test chemical solution B added to eggs in 96-well plate, unhatched eggs and inactive larvae counted 4 days after addition, 25°C, relative to untreated plot
Method: Agar medium with 1% potato dextrose was aliquoted into 60-µl portions in a 96-well plate, and 30 µl of sterilized water containing Trichostrongylus axei eggs and a freeze-dried Escherichia coli OP50 strain (five eggs, 10 µg/10 µl Escherichia coli) was added to each well. From above, 10 µl of test chemical solution B of the presently invented compound was added to each well, and the plate was left to stand under dark conditions at 25°C.

[2] = test system: brown rice planthoppers (Nilaparvata lugens); test: Insecticidal test for brown rice planthoppers; conditions: Nilaparvata lugens, 144 h; 500 ppm chemical solution, rice leaf sheaths soaked, third-instar larvae, six days, 25°C; read-out: death rate
Method: A 10% by mass emulsion of the presently invented compound prepared according to the above formulation example for an emulsion was diluted with water containing a spreader to prepare a chemical solution having a concentration of 500 ppm. Rice leaf sheaths were soaked in the chemical solution for approximately 10 seconds. After the completion of the soaking operation, the rice leaf sheaths treated with the chemical solution were air-dried, and then put in test tubes. Into each test tube, five third-instar brown rice planthoppers (Nilaparvata lugens) larvae were released, and the test tubes were capped with sponge and accommodated in a thermostatic room at 25°C. Six days after the accommodation, the number of dead brown rice planthoppers individuals in the test tubes were examined, and the death rate was calculated from a calculation formula shown below. The test was carried out in duplicate. [formula]

[3] = test system: diamondback moths (Plutella xylostella); test: Insecticidal test for diamondback moths; conditions: Plutella xylostella, 144 h; 500 ppm chemical solution, leaves soaked, third-instar larvae, six days, 25°C; read-out: death rate
Method: A 10% by mass emulsion of the presently invented compound prepared according to the above formulation example for an emulsion was diluted with water containing a spreader to prepare a chemical solution having a concentration of 500 ppm. Chinese olive leaves were soaked in the chemical solution for approximately 10 seconds. After the completion of the soaking operation, the Chinese olive leaves treated with the chemical solution were air-dried, and then put in dishes. Into each dish, five third-instar diamondback moths (Plutella xylostella) larvae were released, and the dishes were capped and accommodated in a thermostatic room at 25°C. […] The test was carried out in duplicate.

[4] = test system: western flower thrips (Frankliniella occidentalis); test: Insecticidal activity against western flower thrips; conditions: Frankliniella occidentalis, 48 h; 500 ppm chemical solution sprinkled (2.5 mg/cm^2), larvae on common bean leaf, after 2 days; read-out: death rate
Method: Wet filter paper was laid on each styrol cup having an inner diameter of 7 cm, and a common bean leaf cut into a 3 cm square was placed thereon, and inoculated with 20 western flower thrips (Frankliniella occidentalis) larvae. A 10% by mass emulsion of the presently invented compound prepared according to the above formulation example for an emulsion was diluted with water containing a spreader to prepare a chemical solution having a concentration of 500 ppm. For each styrol cup, 2.5 ml of the chemical solution prepared was sprinkled (2.5 mg/cm^2) with a rotary tower sprinkler. […] The test was carried out in duplicate.

[5] = test system: cat fleas (Ctenocephalides felis); test: whole plant or invertebrate; conditions: 72 h, read-out: death rate
Method: In 1 ml of acetone, 1 mg of the presently invented compound was dissolved to prepare a chemical solution having a concentration of 1000 ppm. The bottom surface and side surface of each glass container having an inner wall surface area of 25 cm^2 were coated with 250 µl of the chemical solution, and acetone was then volatilized to form a thin film of the compound on the inner wall of the glass container.
Into each of the treated glass containers, five cat fleas (Ctenocephalides felis) imagoes (mixed-sex) were released, and the glass containers were capped and accommodated in a thermostatic room at 25°C. Three days after the release, the number of dead flea individuals were examined, and the death rate was calculated from the same calculation formula as in Test Example 1.

SMILES | efficacy (%) [1] | mortality at 500 µg/mL [2] | mortality at 500 µg/mL [3] | mortality at 500 µg/mL [4] | mortality at 10 µg/cm2 [5]
O=C(Nc1ncc(Cl)cc1F)C1=C(O)CC(c2cnc(C(F)(F)F)c(-c3ccc(F)nc3)c2)NC1=O (stereo not shown) [2-181] | ≥ 50% | – | – | – | –
O=C(Nc1ccc(Cl)nc1)C1=C(O)CC(c2cnc(C(F)(F)F)c(-c3ccc(F)nc3)c2)NC1=O (stereo not shown) [2-170] | ≥ 50% | – | – | – | –
Cc1ccc(NC(=O)C2=C(O)CC(c3cnc(C(F)(F)F)c(-c4ccc(F)nc4)c3)NC2=O)nc1 (stereo not shown) [2-171] | ≥ 50% | – | – | – | –
Cc1ccc(NC(=O)C2=C(O)CC(c3nc(-c4ccccc4F)no3)NC2=O)nc1 (stereo not shown) [3-129] | ≥ 50% | – | – | – | –
Cn1nccc1NC(=O)C1=C(O)CC(c2cnc(Cl)c(-c3ccc(F)cc3)c2)NC1=O (stereo not shown) [2-290] | ≥ 50% | – | – | – | –
Cn1nc(Cl)c(-c2noc(C3CC(O)=C(C(=O)Nc4nccs4)C(=O)N3)n2)c1Cl (stereo not shown) [3-171] | ≥ 50% | – | – | – | –
COc1cccc(-c2cc(C3CC(O)=C(C(=O)Nc4ccc(F)cn4)C(=O)N3)cnc2C(F)(F)F)c1 (stereo not shown) [2-247] | ≥ 50% | – | – | – | –
O=C(Nc1ncc(F)cc1Cl)C1=C(O)CC(c2cnc(Cl)c(-c3ccc(F)nc3)c2)NC1=O (stereo not shown) [2-103] | ≥ 50% | – | – | – | –
Cn1ccc(NC(=O)C2=C(O)CC(c3cnc(C(F)(F)F)c(-c4ccc(F)nc4)c3)NC2=O)n1 (stereo not shown) [2-172] | ≥ 50% | – | – | – | –
CON=C(C)c1cccc(-c2noc(C3CC(O)=C(C(=O)Nc4ccc(F)cn4)C(=O)N3)n2)c1 (stereo not shown) [3-125] | ≥ 50% | – | – | – | –
O=C(Nc1ccc(F)cn1)C1=C(O)CC(c2nc(-c3cc(F)c(F)c(F)c3)no2)NC1=O (stereo not shown) [3-138] | ≥ 50% | – | – | – | –
Cc1cc(-c2noc(C3CC(O)=C(C(=O)Nc4ccc(F)cn4)C(=O)N3)n2)ccn1 (stereo not shown) [3-061] | ≥ 50% | – | – | – | –
O=C(Nc1ccc(F)cn1)C1=C(O)CC(c2cnc(C(F)(F)F)c(-c3cccc(F)c3)c2)NC1=O (stereo not shown) [2-246] | ≥ 50% | – | – | – | –
Cc1ccnc(NC(=O)C2=C(O)CC(c3cnc(Cl)c(-c4ccc(F)nc4)c3)NC2=O)c1 (stereo not shown) [2-153] | ≥ 50% | – | – | – | –
O=C(Nc1ccc(F)cn1)C1=C(O)CC(c2nc(-c3ncc(C(F)(F)F)cc3Cl)no2)NC1=O (stereo not shown) [3-148] | ≥ 50% | – | – | – | –
Cc1cc(-c2noc(C3CC(O)=C(C(=O)Nc4cc(C(F)(F)F)n(C)n4)C(=O)N3)n2)ccn1 (stereo not shown) [3-275] | ≥ 50% | – | – | – | –
O=C(Nc1ccc(F)cn1)C1=C(O)CC(c2cnc(C(F)(F)F)c(-c3ccccc3F)c2)NC1=O (stereo not shown) [2-249] | ≥ 50% | – | – | – | –
Cn1ccc(NC(=O)C2=C(O)CC(c3nc(-c4ccc(F)cc4)no3)NC2=O)n1 (stereo not shown) [3-202] | ≥ 50% | – | – | – | –
O=C(Nc1cnccn1)C1=C(O)CC(c2cnc(Cl)c(-c3ccc(F)nc3)c2)NC1=O (stereo not shown) [2-133] | ≥ 50% | – | – | – | –
Cc1ccccc1-c1cc(C2CC(O)=C(C(=O)Nc3ccc(F)cn3)C(=O)N2)cnc1C(F)(F)F (stereo not shown) [2-248] | ≥ 50% | – | – | – | –

SMILES | efficacy (%) [1] | mortality at 500 µg/mL [2] | mortality at 500 µg/mL [3] | mortality at 500 µg/mL [4] | mortality at 10 µg/cm2 [5]
O=C(Nc1ccc(F)cc1)C1=C(O)CC(c2nc(-c3cncc(F)c3)no2)NC1=O (stereo not shown) [3-021] | – | ≥ 90% | ≥ 90% | ≥ 90% | ≥ 50%
Cc1cccc(-c2cc(C3CC(O)=C(C(=O)Nc4ccc(F)cc4)C(=O)N3)cnc2Cl)c1 (stereo not shown) [2-263] | – | ≥ 90% | ≥ 90% | ≥ 90% | ≥ 50%
O=C(Nc1cncc(F)c1Br)C1=C(O)CC(c2cnc(Cl)c(-c3cnccc3F)c2)NC1=O (stereo not shown) [2-139] | – | ≥ 90% | ≥ 90% | ≥ 90% | ≥ 50%
O=C(Nc1ccc(F)c(F)c1)C1=C(O)CC(c2nc(-c3ccc(F)cc3F)no2)NC1=O (stereo not shown) [3-161] | – | ≥ 90% | ≥ 90% | ≥ 90% | ≥ 50%
O=C(Nc1cc(F)ccn1)C1=C(O)CC(c2nc(-c3ccsc3Cl)no2)NC1=O (stereo not shown) [3-235] | – | ≥ 90% | ≥ 90% | ≥ 90% | ≥ 50%
O=C(Nc1ccc(F)cc1)C1=C(O)CC(c2nc(-c3cccc(C(F)(F)F)c3)no2)NC1=O (stereo not shown) [3-005] | – | ≥ 90% | ≥ 90% | ≥ 90% | ≥ 50%
O=C(Nc1cc(F)ccn1)C1=C(O)CC(c2nc(-c3cccc(F)c3)no2)NC1=O (stereo not shown) [3-057] | – | ≥ 90% | ≥ 90% | ≥ 90% | ≥ 50%
O=C(Nc1cnc(Cl)cn1)C1=C(O)CC(c2cnc(Cl)c(-c3ccccc3)c2)NC1=O (stereo not shown) [2-095] | – | ≥ 90% | ≥ 90% | ≥ 90% | ≥ 50%
O=C(Nc1ccc(F)cc1)C1=C(O)CC(c2nc(-c3cccnc3)no2)NC1=O (stereo not shown) [3-007] | – | ≥ 90% | ≥ 90% | ≥ 90% | ≥ 50%
O=C(Nc1ccc(F)cc1)C1=C(O)CC(c2nc(-c3cc(F)cc(F)c3)no2)NC1=O (stereo not shown) [3-034] | – | ≥ 90% | ≥ 90% | ≥ 90% | ≥ 50%
O=C(Nc1cc(F)ccn1)C1=C(O)CC(c2nc(-c3cscc3Cl)no2)NC1=O (stereo not shown) [3-234] | – | ≥ 90% | ≥ 90% | ≥ 90% | ≥ 50%
N#Cc1ccc(NC(=O)C2=C(O)CC(c3cnc(Cl)c(-c4ccc(F)nc4)c3)NC2=O)cn1 (stereo not shown) [2-013] | – | ≥ 90% | ≥ 90% | ≥ 90% | ≥ 50%
O=C(Nc1cc(Cl)ccn1)C1=C(O)CC(c2nc(-c3ccc(F)cc3F)no2)NC1=O (stereo not shown) [3-155] | – | ≥ 90% | ≥ 90% | ≥ 90% | ≥ 50%
O=C(Nc1cccnc1)C1=C(O)CC(c2nc(-c3ccc(F)cc3F)no2)NC1=O (stereo not shown) [3-177] | – | ≥ 90% | ≥ 90% | ≥ 90% | ≥ 50%
O=C(Nc1ccc(F)cn1)C1=C(O)CC(c2nc(-c3ccnc(F)c3)no2)NC1=O (stereo not shown) [3-036, N-(5-fluoropyridin-2-yl)-6-(3-(2-fluoropyridin-4-yl)-1,2,4-oxadiazol-5-yl)-4-hydroxy-2-oxo-1,2,5,6-tetrahydropyridine-3-carboxamide] | – | ≥ 90% | ≥ 90% | ≥ 90% | ≥ 50%
O=C(Nc1ccc(F)cn1)C1=C(O)CC(c2nc(-c3cnc(C(F)(F)F)s3)no2)NC1=O (stereo not shown) [3-264] | – | ≥ 90% | ≥ 90% | ≥ 90% | ≥ 50%
O=C(Nc1ccc(F)cn1)C1=C(O)CC(c2cnc(Cl)c(-c3cnccc3F)c2)NC1=O (stereo not shown) [2-136] | – | ≥ 90% | ≥ 90% | ≥ 90% | ≥ 50%
O=C(Nc1cnccn1)C1=C(O)CC(c2cnc(Cl)c(-c3cncc(Cl)c3)c2)NC1=O (stereo not shown) [2-147] | – | ≥ 90% | ≥ 90% | ≥ 90% | ≥ 50%
O=C(Nc1cccc(F)n1)C1=C(O)CC(c2nc(-c3ccncc3F)no2)NC1=O (stereo not shown) [3-238] | – | ≥ 90% | ≥ 90% | ≥ 90% | ≥ 50%
N#Cc1ccc(NC(=O)C2=C(O)CC(c3cnc(Cl)c(-c4ccccc4)c3)NC2=O)nc1 (stereo not shown) [2-094] | – | ≥ 90% | ≥ 90% | ≥ 90% | ≥ 50%
